Two molecules from patent EP0343258B1, “AGENT FOR PROPHYLAXIS AND TREATMENT OF VIRALLY INFECTED DISEASES” (MITSUI TOATSU CHEMICALS, Inc., priority 1987, dated 1989) can be followed below.

Non-standard residues stand in square brackets, D forms with d. Residues, ends and D or L forms follow the SMILES beside them. pGlu = O=C1CC[C@@H](C(=O)O)N1

Data set [1] in a line: Toxicity test, repeated subcutaneous administration to mice. Type of data set: in vivo, ddy male mice. The source says:
(§1) Thus, the medicament of the present invention is a safe medicament of extremely low toxicity and can be administered for a long period of time.

Data set [2] is described as follows: Toxicity test, repeated subcutaneous administration to rats. Type of data set: in vivo, wister rats. The following applies: 30 mg/kg subcutaneously for consecutive 21 days.
Text: as §1

For another data set, the system named is REO virus type II. The experiment in a line: Jerne plaque assay (antibody-forming cells against SRBC) in REO virus-infected new-born NC mice. The class given is in vivo. Particulars: 10⁵ PFU REO virus; MDP 20 µg/mouse with Freund incomplete adjuvant, given with SRBC 2 weeks after infection; measured 4 days later. How it is done:
Two weeks after the infection of 10⁵ PFU REO virus, sheep red blood cells (referred to hereinafter simply as SRBC) was intraperitoneally administered and 4 days after the administration, the number of hemolysis plaques was measured by way of Jerne plaque assay as a production amount of antibody-forming cells against SRBC. The number of hemolysis plaques was 15±2 per 10⁶ spleen cells in a group not infected with REO virus, while that was 2.8±1.6 in an infected group, thus showing a remarkable immunity inhibitory state. In compliance with this, atrophy of thymus and decrease in the number of thymic cortex lymphocytes were observed.
In a group to which muramyl dipeptide was administered in an amount of 20 µg/mouse together with Freund incomplete adjuvant, the number of hemolysis plaques was 11±2.
Next, recovery of the immune function by immunity-enhancing substance was examined, using new-born mice infected with REO virus type II. Two weeks after the infection of the mice with the virus, sheep red blood cells were administered to the mice, and 4 days after the administration, Jerne plaque assay was carried out to measure the number of hemolysis plaques. […]
Mice infected with virus was immunized at the same time with SRBC and an immunostimulant, and 4 days after the immunization, the number of hemolysis plaques was measured by Jerne plaque assay. […]

In the case of `C[C@H](NC(=O)[C@@H]1CCC(=O)N1)C(=O)N[C@@H](CCCCN)C(=O)N[C@@H](CO)C(=O)N[C@@H](CCC(N)=O)C(=O)NCC(=O)NCC(=O)N[C@@H](CO)C(=O)N[C@@H](CC(N)=O)C(=O)O` [FTS, pGlu-Ala-Lys-Ser-Gln-Gly-Gly-Ser-Asn] ([pGlu]AKSQGGSN-OH), in data set [1] (50 mg/kg and 100mg/kg subcutaneously for consecutive 14 days), the toxicity result is on record as “No toxicity was observed”. Also, in data set [1] (100 mg/kg subcutaneously every day for consecutive 14 days), the “abnormal symptom by external check” value was “no abnormal symptom was found”. For the same molecule, in data set [2], the “abnormal symptom in external behavior observation, biochemical diagnosis of sera and pathological anatomy” value was “no abnormal symptom was found”; the toxicity entry is on record as “No toxicity was observed”.

Turning to `CC(=O)N[C@H]1C(O)O[C@H](CO)[C@@H](O)[C@@H]1O[C@H](C)C(=O)N[C@@H](C)C(=O)N[C@H](CCC(=O)O)C(N)=O` (some centres unmarked) [MDP, muramyl dipeptide], the PFC/10⁶ spleen cells with REO virus type II stood at 11±2 PFC/10⁶ spleen cells.
